The text below walks through data of publication PMC6011181, “The Mechanism of Acetyl Transfer Catalyzed by Mycobacterium tuberculosis GlmU” (Biochemistry, 2018).

For series [1], the target named is T1, GlmU (Mycobacterium tuberculosis, UniProt P9WMN3). Description: biochemical. It is filed as binding.
Series [2] addresses T1, GlmU. In words: acetyltransferase dead-end inhibition, initial velocities versus GlcN-1P. It is filed as biochemical. The following applies: read-out: Kis.
For series [3], the target named is T1, GlmU. Description: acetyltransferase inhibition assay. It counts as biochemical.
In series [4] the target is T1, GlmU. Description: acetyltransferase dead-end inhibition, initial velocities versus Ac-CoA. It counts as biochemical. The settings on record: read-out: Kis.
Series [5] deals with O=c1ccn([C@@H]2O[C@H](COP(=O)(O)OP(=O)(O)OP(=O)(O)O)[C@@H](O)[C@H]2O)c(=O)[nH]1. In words: purified protein. The settings on record: co-substrate GlcNAc-1P saturating, pH 7.5, 30 °C, 10 mM MgCl2, uridylyltransferase site.
The test system of series [6] is N[C@H]1[C@@H](OP(=O)(O)OP(=O)(O)OC[C@H]2O[C@@H](n3ccc(=O)[nH]c3=O)[C@H](O)[C@@H]2O)O[C@H](CO)[C@@H](O)[C@@H]1O. Description: purified protein. The following applies: co-substrate Ac-CoA saturating, pH 7.5, 30 °C, 10 mM MgCl2, acetyltransferase site.
The subject of series [7] is CC(=O)N[C@H]1[C@@H](OP(=O)(O)O)O[C@H](CO)[C@@H](O)[C@@H]1O. In words: purified protein. The following applies: co-substrate UTP saturating, pH 7.5, 30 °C, 10 mM MgCl2, uridylyltransferase site.
Series [8] relates to N[C@H]1[C@@H](OP(=O)(O)O)O[C@H](CO)[C@@H](O)[C@@H]1O. Description: purified protein. The settings on record: co-substrate Ac-CoA saturating, pH 7.5, 30 °C, 10 mM MgCl2.
Series [9] deals with CC(=O)SCCNC(=O)CCNC(=O)[C@H](O)C(C)(C)COP(=O)(O)OP(=O)(O)OC[C@H]1O[C@@H](n2cnc3c(N)ncnc32)[C@H](O)[C@@H]1OP(=O)(O)O. In words: purified protein. The following applies: co-substrate GlcN-1P saturating, pH 7.5, 30 °C, 10 mM MgCl2.
Series [10] addresses T1, GlmU. In words: biochemical. The settings on record: read-out: Kis.
The target of series [11] is T1, GlmU. In words: acetyltransferase DTP absorbance assay (CoA-SH release). It is filed as biochemical.
The next series addresses His374 (UniProt position 374, GTKVPHLTYVG). In words: kinetics. The following applies: 30 °C (stated for the acetyltransferase assay; not restated for the pH-rate studies); constant-ionic-strength three-component buffer (value not stated); 10 mM MgCl2; Vmax conditions (enzyme saturated with Ac-CoA and GlcN-1P), Mg2+ present.
Series [12] concerns the target T1, GlmU. It is filed as biochemical.
Where [13] appears, read: Km concentrations of Ac-CoA and GlcN-1P, pH 7.5, 30 °C, 10 mM MgCl2, acetyltransferase site, read-out: no inhibition at ≤10 mM.

Like-named read-outs stand apart in the source and are kept apart here.

T1 sequence (P9WMN3 whole entry, looked up): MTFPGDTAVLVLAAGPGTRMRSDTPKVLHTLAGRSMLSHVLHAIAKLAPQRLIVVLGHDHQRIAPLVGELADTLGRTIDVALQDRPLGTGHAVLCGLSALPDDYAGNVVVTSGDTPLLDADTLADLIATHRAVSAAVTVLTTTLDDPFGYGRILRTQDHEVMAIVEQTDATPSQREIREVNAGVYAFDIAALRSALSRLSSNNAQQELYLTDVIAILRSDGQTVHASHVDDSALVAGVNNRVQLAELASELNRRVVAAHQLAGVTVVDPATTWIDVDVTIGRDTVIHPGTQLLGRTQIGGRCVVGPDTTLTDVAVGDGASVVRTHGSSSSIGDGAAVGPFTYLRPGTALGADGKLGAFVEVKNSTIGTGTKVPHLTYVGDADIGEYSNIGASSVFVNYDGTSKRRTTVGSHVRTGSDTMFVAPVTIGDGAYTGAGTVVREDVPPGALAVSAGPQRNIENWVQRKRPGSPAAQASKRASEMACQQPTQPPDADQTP

With `O=P(O)(O)O[C@H]1O[C@H](CO)[C@@H](O)[C@H](O)[C@H]1O` [Glc-1P], the Kd (usually the equilibrium constant for the complex coming apart) at GlmU [1] (read-out: Kd) is 1.7 ± 0.4 mM. The Ki at GlmU [2] amounted to 4100 ± 600 µM. In addition, the IC50 at GlmU [3] (read-out: IC50 (mM) ^b, ^c) is 5 ± 0.65 mM.
In the case of `CCCC(=O)SCCNC(=O)CCNC(=O)[C@H](O)C(C)(C)COP(=O)(O)OP(=O)(O)OC[C@H]1O[C@@H](n2cnc3c(N)ncnc32)[C@H](O)[C@@H]1OP(=O)(O)O` [Bu-CoA], on GlmU [1] (read-out: Kd (mM) ^c), the Kd worked out at 3.8 ± 0.8 mM. Further, at GlmU [3] (read-out: IC50 (mM) ^b, ^c), the IC50 worked out at 1 ± 0.03 mM. Also, on GlmU [4], the Ki turned out to be 350 ± 30 µM.
GlmU (Mycobacterium tuberculosis H37Rv): the Km (usually the concentration of substrate that gives half-maximal velocity) is 8 ± 0.8 µM in series [5]; 9700 ± 600 µM in series [6]; 30 ± 5 µM in [7]; 290 ± 31 µM in [8]; 250 ± 8 µM in series [9]. The kcat (commonly the number of substrate molecules converted per active site and unit of time at saturation) was 120 ± 3 s⁻¹ in series [5] and 2.04 ± 0.06 s⁻¹ in series [6]. For the same compound, the kcat/Km – broadly, the second-order rate constant that governs catalysis at low substrate concentration – in [5] was 1.5e+07 ± 3.8e+06 M⁻¹ s⁻¹; in series [6], 220 ± 170 M⁻¹ s⁻¹.
`CC(=O)SCCNC(=O)CCNC(=O)[C@H](O)C(C)(C)COP(=O)(O)OP(=O)(O)OC[C@H]1O[C@@H](n2cnc3c(N)ncnc32)[C@H](O)[C@@H]1OP(=O)(O)O` [Ac-CoA]: the Kd at GlmU [1] (read-out: Kd (μM) ^b) is 0.25 ± 0.025 mM.
Same read-out and setting: then `CCC(=O)SCCNC(=O)CCNC(=O)[C@H](O)C(C)(C)COP(=O)(O)OP(=O)(O)OC[C@H]1O[C@@H](n2cnc3c(N)ncnc32)[C@H](O)[C@@H]1OP(=O)(O)O` [Pro-CoA], with 0.5 ± 0.1 mM.
Consider `O=P(O)(O)OC[C@H]1OC(O)[C@@H](O)[C@@H](O)[C@@H]1O` (stereo partly shown) [mannose 6-phosphate], for which, on GlmU [3] (setting [13]), the IC50 is greater than 10 mM.
For the compound `CC(C)(COP(=O)(O)OP(=O)(O)OC[C@H]1O[C@@H](n2cnc3c(N)ncnc32)[C@H](O)[C@@H]1OP(=O)(O)O)[C@@H](O)C(=O)NCCC(=O)NCCS` [CoA-SH], on GlmU [10], the Ki turned out to be 150 ± 15 µM. Moreover, the Kd on GlmU [1] (read-out: Kd (mM) ^c) was determined as 0.7 ± 0.13 mM. The IC50 against GlmU [11] stood at 0.3 ± 0.01 mM.
For `CC(C)C(=O)SCCNC(=O)CCNC(=O)[C@H](O)C(C)(C)COP(=O)(O)OP(=O)(O)OC[C@H]1O[C@@H](n2cnc3c(N)ncnc32)[C@H](O)[C@@H]1OP(=O)(O)O` [IsoBu-CoA], at GlmU [3] (read-out: IC50 (mM) ^b, ^c), the IC50 stood at 2 ± 0.21 mM.
Same read-out and setting: then `C/C=C/C(=O)SCCNC(=O)CCNC(=O)[C@H](O)C(C)(C)COP(=O)(O)OP(=O)(O)OC[C@H]1O[C@@H](n2cnc3c(N)ncnc32)[C@H](O)[C@@H]1OP(=O)(O)O` [Cro-CoA], with 1 ± 0.15 mM.
As for “Bifunctional N-acetyltransferase/uridylyltransferase GlmU (Mycobacterium tuberculosis H37Rv)”, the pKa (as a rule, the negative logarithm of the acid dissociation constant) with His374 stood at 6.7 ± 0.1.
As to `O=P(O)(O)OC[C@H]1OC(O)[C@H](O)[C@@H](O)[C@@H]1O` (stereo partly shown) [glucose 6-phosphate], the IC50 on GlmU [3] (setting [13]) was greater than 10 mM.
The same measure, in the same setting: then `CC(=O)N[C@@H]1C(O)O[C@H](CO)[C@@H](O)[C@@H]1O` (stereo partly shown) [N-acetyl-mannosamine], with greater than 10 mM.
In the case of `CC(C)(COP(=O)(O)OP(=O)(O)OC[C@H]1O[C@@H](n2cnc3c(N)ncnc32)[C@H](O)[C@@H]1OP(=O)(O)O)[C@@H](O)C(=O)NCCC(=O)NCCSC(=O)CC(=O)O` [Mlo-CoA], the IC50 on GlmU [3] (read-out: IC50 (mM) ^b, ^c) was 2 ± 0.59 mM.
Take `N[C@H]1[C@@H](OP(=O)(O)O)O[C@H](CO)[C@@H](O)[C@@H]1O` [GlcN-1P]: at GlmU [12], the Kd result is “in the presence of high concentrations of the second substrate, the Kd values for the complex”.
As for `CC(=O)N[C@H]1C(O)O[C@H](CO)[C@H](O)[C@@H]1O` (stereo partly shown) [N-acetyl-galactosamine], at GlmU [3] (setting [13]), the IC50 was greater than 10 mM.
In the case of `N[C@H]1C(O)O[C@H](COP(=O)(O)O)[C@@H](O)[C@@H]1O` (stereo partly shown) [GlcN-6P], the IC50 on GlmU [3] (Km concentrations of Ac-CoA and GlcN-1P, pH 7.5, 30 °C, 10 mM MgCl2, read-out: IC50 (mM) ^b, ^c) was 10 ± 0.89 mM.
As to `O=P(O)(O)O[C@H]1O[C@H](CO)[C@@H](O)[C@H](O)[C@@H]1O` [mannose 1-phosphate], the IC50 at GlmU [3] (read-out: no inhibition at ≤10 mM) was greater than 10 mM.
